9 compounds from PMC9492458, “Development and structure–activity relationships of tanshinones as selective 11β-hydroxysteroid dehydrogenase 1 inhibitors” (Natural Products and Bioprospecting, 2022) can be followed below.

Assay [1] concerns the target T1, 11β-HSD1 in 3T3-L1 adipocytes (Mus musculus, UniProt P50172).
T1 construct: endogenous in cells; host or cells: 3T3-L1 adipocytes
As to the kind of experiment: 11β-HSD1 activity assay in 3T3-L1 adipocytes. The assay is classed as cell-based. As to conditions: for IC50: 1 h incubation, averages of three determinations, read-out: IC50, cellular assay on 3T3-L1 adipocyte against 11β-HSD1; for Emax: read-out: Max effect. On the procedure:
11β-HSD1 enzyme inhibition in adipose tissue is believed to be important for achieving efficacy in vivo [11, 12]. Derivatives with potent enzymatic potency and excellent selectivity profiles (13, 14, 17, 28a, 28b and 30) were also evaluated their 11β-HSD1 inhibition in 3T3-L1 adipocyte.
The reductase activity of 11β-HSD1 in intact 3T3-L1 adipocytes was determined by measuring the rate of conversion of cortisone to cortisol. To explore the effect of compounds on 11β-HSD1 reductase activity, 3T3-L1 adipocytes were incubated for 1 h at 37 °C in serum-free DMEM containing 6.25 nmol/L [1,2-(N)^3H]-cortisone and different concentrations of compounds, according to experimental design. 0.1% DMSO was set as the vehicle control and MK544 was set as the positive control. At the end of the incubation, 80 μL of medium was pipetted into a transparent bottom 96-well plate, and 35 μL of SuperBlock Blocking Buffer containing 10 g/L of protein A-coated yttrium silicate beads and 3 mg/L of anti-cortisol antibodies was added. The mixtures were shaken in the dark for 2 h and then used for liquid scintillation readings. The inhibition effect was calculated by the following equation: Inhibition%=Data(compound)-Data(DMSO Vehicle)/Data(MK54410μM)-Data(DMSO Vehicle)×100%.

A further assay has as its target T2, mouse 11β-HSD2 (Mus musculus, UniProt P51661).
T2 sequence (P51661 1-386): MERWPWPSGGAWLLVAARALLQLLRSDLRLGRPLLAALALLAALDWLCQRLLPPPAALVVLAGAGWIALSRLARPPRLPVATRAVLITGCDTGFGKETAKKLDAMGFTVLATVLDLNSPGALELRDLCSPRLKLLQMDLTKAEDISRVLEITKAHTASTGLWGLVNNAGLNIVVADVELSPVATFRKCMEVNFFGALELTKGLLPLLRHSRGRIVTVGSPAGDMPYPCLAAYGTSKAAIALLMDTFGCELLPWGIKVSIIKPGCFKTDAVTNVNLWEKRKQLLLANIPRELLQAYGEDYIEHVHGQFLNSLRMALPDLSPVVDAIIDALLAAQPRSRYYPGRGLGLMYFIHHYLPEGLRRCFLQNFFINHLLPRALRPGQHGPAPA
As to the kind of experiment: scintillation proximity assay (SPA), microsomes of HEK-293 cells transfected with mouse 11β-HSD2.

The next assay deals with T3, human 11β-HSD2 (Homo sapiens, UniProt P80365).
T3 sequence (P80365 1-405): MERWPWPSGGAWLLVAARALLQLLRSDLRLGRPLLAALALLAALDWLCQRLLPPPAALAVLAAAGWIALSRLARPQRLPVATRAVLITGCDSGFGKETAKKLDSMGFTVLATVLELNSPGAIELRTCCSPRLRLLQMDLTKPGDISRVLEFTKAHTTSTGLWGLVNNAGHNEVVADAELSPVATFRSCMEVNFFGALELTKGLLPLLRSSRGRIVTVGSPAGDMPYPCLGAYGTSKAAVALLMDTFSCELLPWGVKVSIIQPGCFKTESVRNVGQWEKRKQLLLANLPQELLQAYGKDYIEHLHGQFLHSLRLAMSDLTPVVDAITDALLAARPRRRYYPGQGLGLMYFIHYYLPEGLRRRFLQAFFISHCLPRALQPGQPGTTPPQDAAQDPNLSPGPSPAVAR
Nature of the assay: scintillation proximity assay (SPA), microsomes of HEK-293 cells transfected with human 11β-HSD2.

The next assay deals with human 11β-HSD1 (Homo sapiens, UniProt P28845). As to the kind of experiment: scintillation proximity assay (SPA), microsomes of HEK-293 cells transfected with human 11β-HSD1. As to conditions: for Human SI (selectivity index): Table 3, SI = IC50(HSD2)/IC50(HSD1); for inhibition at 1 µM: read-out: Inhibitory ratio h-HSD1, at 1.0 μM, averages of three determinations. Background: In a scintillation proximity assay essentially only radioactivity close to the scintillant gives light.

A further assay has as its target mouse 11β-HSD1 (Mus musculus, UniProt P50172). Nature of the assay: scintillation proximity assay (SPA), microsomes of HEK-293 cells transfected with mouse 11β-HSD1. As to conditions: for Mouse SI (selectivity index): Table 3, SI = IC50(HSD2)/IC50(HSD1); for inhibition at 1 µM: read-out: Inhibitory ratio m-HSD1, at 1.0 μM, averages of three determinations.
Where [2] appears, read: inhibition relative to MK544 10 μM.

mouse 11β-HSD1, sequence (P50172 whole entry): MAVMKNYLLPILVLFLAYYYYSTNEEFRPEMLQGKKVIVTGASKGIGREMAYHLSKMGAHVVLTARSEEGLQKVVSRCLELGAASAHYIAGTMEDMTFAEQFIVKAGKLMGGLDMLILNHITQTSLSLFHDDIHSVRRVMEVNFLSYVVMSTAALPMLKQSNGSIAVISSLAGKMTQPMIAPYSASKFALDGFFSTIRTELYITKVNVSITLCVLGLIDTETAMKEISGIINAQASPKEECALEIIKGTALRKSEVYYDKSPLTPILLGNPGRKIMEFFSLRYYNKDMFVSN
T1 sequence (P50172 whole entry): as above
human 11β-HSD1, sequence (P28845 whole entry): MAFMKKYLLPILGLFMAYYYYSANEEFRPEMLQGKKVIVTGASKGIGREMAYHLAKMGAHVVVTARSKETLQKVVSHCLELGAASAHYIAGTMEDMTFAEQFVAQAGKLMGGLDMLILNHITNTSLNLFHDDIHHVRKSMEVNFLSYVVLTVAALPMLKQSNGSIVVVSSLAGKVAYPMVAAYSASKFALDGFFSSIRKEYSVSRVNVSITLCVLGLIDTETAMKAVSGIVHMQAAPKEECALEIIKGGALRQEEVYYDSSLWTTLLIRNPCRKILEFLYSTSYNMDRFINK
Method for human 11β-HSD1: (§1) With diverse tanshinones in hand, inhibition of human and mouse 11β-HSD1 enzymatic potency was measured by scintillation proximity assay (SPA) using microsomes containing 11β-HSD1 [46, 47]. Results are reported as the average of two or three independent experiments at each concentration.
(§2) The SPA was used to screen for inhibitors of 11β-HSDs [48], with the microsome fractions prepared from the HEK-293 cells stably transfected with either human or mouse 11β-HSD1 or 11β-HSD2 as the enzyme source. […] Reactions were initiated by the addition of 11β-HSD1 or 11β-HSD2, enzyme. […] The plates were incubated under plastic film on an orbital shaker for 120 min at room temperature before counting. The amount of [^3H]-cortisol generated in 11β-HSD1 enzyme reaction or remaining from the 11β-HSD2 enzyme reaction was captured by the beads and determined in a microplate liquid scintillation counter. The % inhibition was calculated relative to a non-inhibited control. Data were obtained from two or three independent experiments. IC50 values were calculated from concentration–response curves by a non-linear regression analysis using Prism Version 6.
Method for human 11β-HSD2: as §1, §2
Method for mouse 11β-HSD1: as §1, §2
Method for mouse 11β-HSD2: as §1, §2

As a reminder, the IC50 is the concentration that inhibits the measured activity by half. Take `Cc1coc2c1C(=O)C(=O)c1c-2ccc2c1C=CCC2(C)C` [Compound 13]: the IC50 is 7.9 µM in assay [1]; over 100 µM against mouse 11β-HSD2; 2.7 ± 1 µM against human 11β-HSD2; 270 nM at human 11β-HSD1; 59.3 ± 9.5 nM against mouse 11β-HSD1. In addition, in assay [1] (setting [2]), the Emax is 102 ± 0.3%. Besides, the “Human SI (selectivity index)” value at human 11β-HSD1 is 9.9. Also, the inhibition at 1 µM was 67.4 ± 1.6% at human 11β-HSD1 and 92.3 ± 2.7% on mouse 11β-HSD1. At mouse 11β-HSD1, the “Mouse SI (selectivity index)” value was over 1689.2.

Consider `Cc1coc2c1C(=O)C(=O)c1c-2ccc2c1C=CC(=O)C2(C)C` [Compound 14], for which the IC50 in assay [1] was over 4 µM; on mouse 11β-HSD2, over 100 µM; on human 11β-HSD2, 5.9 ± 3.4 µM; against human 11β-HSD1, 300 nM; at mouse 11β-HSD1, 53.9 ± 9.3 nM. Further, the Emax in assay [1] (setting [2]) was 104 ± 1.2%. At human 11β-HSD1, the “Human SI (selectivity index)” value is recorded as 19.6. Moreover, the values for the inhibition at 1 µM at human 11β-HSD1 and at mouse 11β-HSD1 were 57.2 ± 2% and 85.9 ± 1.6%, respectively. Moreover, the “Mouse SI (selectivity index)” value on mouse 11β-HSD1 was over 1855.3.

Regarding `Cc1c(COCO)oc2c1C(=O)C(=O)c1c-2ccc2c1CCCC2(C)C` [Compound 28a], the IC50 is 3.9 ± 0.1 µM in assay [1]; over 100 µM against mouse 11β-HSD2; 4.1 ± 0.7 µM against human 11β-HSD2; 149 ± 33.9 nM against human 11β-HSD1; 79.3 ± 16.2 nM on mouse 11β-HSD1. In addition, the Emax in assay [1] (setting [2]) was 104 ± 0.9%. Also, at human 11β-HSD1, the “Human SI (selectivity index)” value was 27.5. Further, the inhibition at 1 µM on human 11β-HSD1 stood at 74.3 ± 2.1%; on mouse 11β-HSD1 it was 79.2 ± 2.2%. In addition, at mouse 11β-HSD1, the “Mouse SI (selectivity index)” value is recorded as over 1261.0.

On to `Cc1c(CO)oc2c1C(=O)C(=O)c1c-2ccc2c1CCCC2(C)C` [Compound 28b], for which the concentration for half-maximal inhibition (IC50) was 3.1 ± 0.6 µM in assay [1]; over 100 µM against mouse 11β-HSD2; 6.3 ± 0.9 µM against human 11β-HSD2; 99.8 ± 10.5 nM against human 11β-HSD1; 70.2 ± 13.4 nM against mouse 11β-HSD1. Besides, the Emax in assay [1] (setting [2]) came to 100 ± 4%. On human 11β-HSD1, the “Human SI (selectivity index)” value is given as 62.9. Further, the inhibition at 1 µM on human 11β-HSD1 came to 75.3 ± 0.8%; on mouse 11β-HSD1, 88.5 ± 0.1%. Moreover, at mouse 11β-HSD1, the “Mouse SI (selectivity index)” value is listed as over 1426.5.

The compound `Cc1c(CN2CCCCC2)oc2c1C(=O)C(=O)c1c-2ccc2c1CCCC2(C)C` [Compound 29b] came in with a half-inhibitory concentration (IC50) at mouse 11β-HSD2 of over 100 µM. The same compound displayed a half-inhibitory concentration (IC50) at human 11β-HSD2 of 6.5 ± 3.6 µM. Also, at human 11β-HSD1, the half-inhibitory concentration (IC50) was determined as 42.6 ± 4.4 nM, the “Human SI (selectivity index)” value is listed as 151.9 and the inhibition at 1 µM worked out at 87.8 ± 0.8%. In addition, on mouse 11β-HSD1, the IC50 stood at 65.5 ± 3.7 nM, the “Mouse SI (selectivity index)” value is over 1526.7 and the inhibition at 1 µM is 89.5%.

Regarding `Cc1c(CN2CCN(C)CC2)oc2c1C(=O)C(=O)c1c-2ccc2c1CCCC2(C)C` [Compound 29d], the IC50 against mouse 11β-HSD2 was over 100 µM. The compound further came in with an IC50 against human 11β-HSD2 of 2.5 ± 0.6 µM. At human 11β-HSD1, half-maximal inhibition (IC50) required 183 ± 32.5 nM, the “Human SI (selectivity index)” value is 13.6 and the inhibition at 1 µM stood at 67.3 ± 3.1%. On mouse 11β-HSD1, inhibition was half-maximal at 272 ± 60.2 nM (IC50), the “Mouse SI (selectivity index)” value was over 367.2 and the inhibition at 1 µM was determined as 55.6 ± 1.8%.

On to `Cc1c(Br)oc2c1C(=O)C(=O)c1c-2ccc2c1C=CCC2(C)C` [Compound 33], for which the IC50 against mouse 11β-HSD2 is over 100 µM; on human 11β-HSD2 it was 1.2 ± 0.5 µM; against human 11β-HSD1, 210 nM; at mouse 11β-HSD1 it was 39.3 ± 7.6 nM. The “Human SI (selectivity index)” value at human 11β-HSD1 was 5.8. Besides, the results for the inhibition at 1 µM on human 11β-HSD1 and on mouse 11β-HSD1 were 70 ± 0.4% and 87.3 ± 1.3%, respectively. In addition, at mouse 11β-HSD1, the “Mouse SI (selectivity index)” value is recorded as over 2551.0.

At mouse 11β-HSD2, `CC1(C)C(=O)C=Cc2c1ccc1c2C(=O)C(=O)c2c(CO)coc2-1` [Compound 34] showed a 50% inhibitory concentration (IC50) of over 100 µM. The compound further registered a concentration for half-maximal inhibition (IC50) at human 11β-HSD2 of 1.9 ± 0.3 µM. Moreover, at human 11β-HSD1, inhibition was half-maximal at 850 ± 200 nM (IC50), the “Human SI (selectivity index)” value is 2.2 and the inhibition at 1 µM turned out to be 53.9 ± 1.6%. For the same compound, on mouse 11β-HSD1, it took 67.2 ± 6.4 nM to reach half-maximal inhibition (IC50), the “Mouse SI (selectivity index)” value was over 1488.1 and the inhibition at 1 µM is 90.8 ± 1.7%.

Turning to `C1CCc2nnc(C34CC5CC(CC(C5)C3)C4)n2CC1` [MK544, reference compound], the concentration for half-maximal inhibition (IC50) in assay [1] is 0.4 ± 0.1 µM. Further, the Max effect in assay [1] (setting [2]) stood at 98.0 ± 0.7%.
